In paper PMC3016297 (Bioorganic & medicinal chemistry, 2010):
Read-outs that look alike come from different tables or passages of the source.

Key:
mock-infected MT-4 cell [1] = experiment: Growth inhibition of mock-infected MT-4 cells; type: cell-based; details: Homo sapiens, MT4, read-out: IC50, concentration that inhibits mock-infected MT-4 cell growth by 50%
HIV-1NL4-3 = HIV-1NL4-3 inhibition assay in MT-4 lymphocytes; type: cell-based; details: HIV-1NL4-3 infected MT-4 cells; for fold more active than the corresponding compound not linked to AZT: 49 vs 63, 52 vs 64
HIV-1IIIB = details: cited from earlier work; for EC50: HIV-1IIIB infected H9 lymphocytes
mock-infected MT-4 cell [2] = details: read-out: IC50, concentration that inhibits mock-infected MT-4 cell growth by 50%; mock-infected MT-4 cells; cited from earlier work

| Structure (SMILES) | anti-HIV activity in words (HIV-1NL4-3) | EC50 (HIV-1IIIB) | further results |
| --- | --- | --- | --- |
| C=C(C)[C@@H]1CC[C@]2(COC(=O)CCCC(=O)O)CC[C@]3(C)[C@H](CC[C@@H]4[C@@]5(C)CC[C@H](OC(=O)CC(C)(C)C(=O)O)C(C)(C)[C@@H]5CC[C@]43C)[C@@H]12 [Compound 64] |  |  | IC50 (mock-infected MT-4 cell [1]): > 14600 nM |
| Cc1cn([C@H]2C[C@H](N=[N+]=[N-])C(COC(=O)CC(C)(C)CC(=O)OC[C@]34CC[C@@H](C(C)C)[C@@H]3[C@H]3CC[C@@H]5[C@@]6(C)CC[C@H](OC(=O)CC(C)(C)CC(=O)O)C(C)(C)[C@@H]6CC[C@@]5(C)[C@]3(C)CC4)O2)c(=O)[nH]c1=O (stereo partly drawn) [Compound 62, 3'-Azido-3'-deoxythymidine-5'-yl 3-O-(3',3'-dimethylglutaryl)-lup-28-yl 3,3-dimethylglutarate] | only moderate activity |  |  |
| C=C(C)[C@@H]1CC[C@]2(COC(=O)CC(C)(C)CC(=O)O)CC[C@]3(C)[C@H](CC[C@@H]4[C@@]5(C)CC[C@H](OC(=O)CC(C)(C)CC(=O)O)C(C)(C)[C@@H]5CC[C@]43C)[C@@H]12 [Compound 5, 3,28-di-O-(3',3'-dimethylglutaryl)betulin] |  | 0.66 nM |  |
| C=C(C)[C@@H]1CC[C@]2(C(=O)O)CC[C@]3(C)[C@H](CC[C@@H]4[C@@]5(C)CC[C@H](OC(=O)CC(C)(C)C(=O)O)C(C)(C)[C@@H]5CC[C@]43C)[C@@H]12 [Compound 2, 3-O-(3',3'-dimethylsuccinyl)betulinic acid] |  | < 0.35 nM | IC50 (mock-infected MT-4 cell [2]): > 5000 nM |
| CC(C)[C@@H]1CC[C@]2(CO)CC[C@]3(C)[C@H](CC[C@@H]4[C@@]5(C)CC[C@H](OC(=O)CCCC(=O)O)C(C)(C)[C@@H]5CC[C@]43C)[C@@H]12 [Compound 4, 3-O-glutaryldihydrobetulin] |  | 0.02 nM |  |
| C=C(C)[C@@H]1CC[C@]2(COC(=O)CCC(=O)OC[C@H]3O[C@@H](n4cc(C)c(=O)[nH]c4=O)C[C@@H]3N=[N+]=[N-])CC[C@]3(C)[C@H](CC[C@@H]4[C@@]5(C)CC[C@H](OC(=O)CC(C)(C)C(=O)O)C(C)(C)[C@@H]5CC[C@]43C)[C@@H]12 [Compound 49, 3'-Azido-3'-deoxythymidine-5'-yl 3-O-(3',3'-dimethylsuccinyl)-lup-20(29)en-28-yl succinate] |  |  | fold more active than the corresponding compound not linked to AZT (HIV-1NL4-3): four |
| C=C(C)[C@@H]1CC[C@]2(COC(=O)C(C)(C)CC(=O)O)CC[C@]3(C)[C@H](CC[C@@H]4[C@@]5(C)CC[C@H](OC(=O)CC(C)(C)C(=O)O)C(C)(C)[C@@H]5CC[C@]43C)[C@@H]12 [Compound 6, 3-O-(3',3'-dimethylsuccinyl)-28-O-(2",2"-dimethylsuccinyl)betulin] |  | 0.87 nM | fold more potent against HIV replication than its isomer with a 3,3-dimethylsuccinyl side chain at C-28 (HIV-1IIIB; H9 lymphocytes assay): 230 fold |
| C=C(C)[C@@H]1CC[C@]2(COC(=O)CCCC(=O)OC[C@H]3O[C@@H](n4cc(C)c(=O)[nH]c4=O)C[C@@H]3N=[N+]=[N-])CC[C@]3(C)[C@H](CC[C@@H]4[C@@]5(C)CC[C@H](OC(=O)CC(C)(C)C(=O)O)C(C)(C)[C@@H]5CC[C@]43C)[C@@H]12 [Compound 52, 3'-Azido-3'-deoxythymidine-5'-yl 3-O-(3',3'-dimethylsuccinyl)-lup-20(29)en-28-yl glutarate] |  |  | fold more active than the corresponding compound not linked to AZT (HIV-1NL4-3): five |
| C=C(C)[C@@H]1CC[C@]2(COC(=O)CC(C)(C)CC(=O)OC[C@H]3O[C@@H](n4cc(C)c(=O)[nH]c4=O)C[C@@H]3N=[N+]=[N-])CC[C@]3(C)[C@H](CC[C@@H]4[C@@]5(C)CC[C@H](OC(=O)CC(C)(C)CC(=O)O)C(C)(C)[C@@H]5CC[C@]43C)[C@@H]12 [Compound 54, 3'-Azido-3'-deoxythymidine-5'-yl 3-O-(3',3'-dimethylglutaryl)-lup-20(29)en-28-yl 3,3-dimethylglutarate] | only moderate activity |  |  |
| Cc1cn([C@H]2C[C@H](N=[N+]=[N-])C(COC(=O)CC(C)(C)CC(=O)OC[C@]34CC[C@@H](C(C)C)[C@@H]3[C@H]3CC[C@@H]5[C@@]6(C)CC[C@H](OC(=O)CCCC(=O)O)C(C)(C)[C@@H]6CC[C@@]5(C)[C@]3(C)CC4)O2)c(=O)[nH]c1=O (stereo partly drawn) [Compound 61, 3'-Azido-3'-deoxythymidine-5'-yl 3-O-glutaryl-lup-28-yl 3,3-dimethylglutarate] | the weakest compound |  |  |
